This is an account of results in ChEMBL document CHEMBL1134205, “Development of novel telomerase inhibitors based on a bisindole unit” (Bioorg Med Chem Lett, 2001).

Experiment [1] has as its target T1, Telomerase reverse transcriptase (Homo sapiens, UniProt O14746). Nature of the experiment: Inhibition ratio of human telomerase was determined by stretch PCR assay with use of 100 uM of the ligand.
Experiment [2] addresses T1, Telomerase reverse transcriptase. Nature of the experiment: Inhibitory concentration against human telomerase.

The structures appear in SMILES notation.

T1 sequence (O14746 whole entry): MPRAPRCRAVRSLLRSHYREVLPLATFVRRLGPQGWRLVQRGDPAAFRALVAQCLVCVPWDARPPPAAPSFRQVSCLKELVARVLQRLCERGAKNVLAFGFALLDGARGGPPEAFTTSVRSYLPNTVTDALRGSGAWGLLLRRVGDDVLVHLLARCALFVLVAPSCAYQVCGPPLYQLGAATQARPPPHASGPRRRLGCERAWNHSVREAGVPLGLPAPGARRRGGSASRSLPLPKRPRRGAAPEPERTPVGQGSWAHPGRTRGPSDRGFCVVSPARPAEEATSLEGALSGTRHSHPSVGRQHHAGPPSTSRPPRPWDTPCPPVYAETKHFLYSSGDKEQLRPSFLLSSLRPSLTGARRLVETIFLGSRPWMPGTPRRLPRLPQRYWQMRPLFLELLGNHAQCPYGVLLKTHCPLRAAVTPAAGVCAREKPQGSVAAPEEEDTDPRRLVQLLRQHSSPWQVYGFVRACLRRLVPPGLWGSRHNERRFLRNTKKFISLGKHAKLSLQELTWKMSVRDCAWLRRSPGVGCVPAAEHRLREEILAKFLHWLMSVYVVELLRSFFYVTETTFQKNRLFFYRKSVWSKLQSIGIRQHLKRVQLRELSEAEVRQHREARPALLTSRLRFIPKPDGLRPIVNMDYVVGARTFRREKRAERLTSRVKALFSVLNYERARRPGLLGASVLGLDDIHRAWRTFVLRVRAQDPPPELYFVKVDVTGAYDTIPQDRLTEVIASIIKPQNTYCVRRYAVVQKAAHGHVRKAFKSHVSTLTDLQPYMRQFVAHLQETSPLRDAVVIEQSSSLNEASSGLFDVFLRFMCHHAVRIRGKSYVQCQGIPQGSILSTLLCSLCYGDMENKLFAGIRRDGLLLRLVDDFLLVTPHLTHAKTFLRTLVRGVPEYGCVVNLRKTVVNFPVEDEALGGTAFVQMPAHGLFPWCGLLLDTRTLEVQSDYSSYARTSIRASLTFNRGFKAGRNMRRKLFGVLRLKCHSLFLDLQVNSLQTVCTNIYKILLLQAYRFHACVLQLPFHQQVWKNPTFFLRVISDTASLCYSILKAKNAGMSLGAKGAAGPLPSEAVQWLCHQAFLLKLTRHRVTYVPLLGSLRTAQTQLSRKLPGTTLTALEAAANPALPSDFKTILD

With `O=C(O)CCCCCCCCCCCNC(=O)Cc1cn(CCCN2CCCC2)c2ccccc12`, the inhibition in experiment [1] worked out at 13%. For the same compound, the IC50 in experiment [2] was over 100 µM. In the case of `Cc1cn(CCn2cc(CC(=O)NCCCCCCCCCCCC(=O)O)c3ccccc32)c2ccccc12`, the inhibition in experiment [1] was determined as 7%. This compound registered a concentration for half-maximal inhibition (IC50) in experiment [2] of over 100 µM. As for `Cc1cn(CCCn2cc(CC(=O)NCCCCCCCCCCCC(=O)O)c3ccccc32)c2ccccc12`, in experiment [1], the inhibition turned out to be 100%. Half-maximal inhibition in experiment [2] (IC50) was put at 20 µM.

As for `O=C(O)CCCCCCCCCCCNC(=O)Cc1c2n(c3ccccc13)CCn1c-2cc2ccccc21`, the inhibition in experiment [1] came out at 62%. Moreover, 62 µM corresponded to half-maximal inhibition in experiment [2] (IC50).

Turning to `O=C(O)CCCCCCCCCCCNC(=O)Cc1cn(CCCOC2CCCCC2)c2ccccc12`, the inhibition in experiment [1] is 75%. Also, inhibition in experiment [2] was half-maximal at 67 µM (IC50). Regarding `O=C(O)CCCCCCCCCCCNC(=O)Cc1cn(CCCOc2ccccc2)c2ccccc12`, the inhibition in experiment [1] was found to be 75%. In experiment [2], this compound gave an IC50 of 33 µM.

Take `O=C(Cc1cn(CCn2ccc3cc(Cl)ccc32)c2ccccc12)NCCCCCCCCCCCCOP(=O)(O)Oc1ccccc1`: in experiment [2], the IC50 was 6.7 µM.

As to `O=C(O)CCCCCCCCCCCNC(=O)Cc1cn(CCn2ccc3ccccc32)c2ccccc12`, the inhibition in experiment [1] stood at 77%. The same compound registered an IC50 in experiment [2] of 41 µM. As for `O=C(Cc1cn(CCCn2cccc2)c2ccccc12)NCCCCCCCCCCCOP(=O)(O)c1ccccc1Cl`, the half-inhibitory concentration (IC50) in experiment [2] is 4.2 µM. For the compound `O=C(O)CCCCCCCCCCCNC(=O)Cc1cn(CCCn2ccc3ccccc32)c2ccccc12`, the inhibition in experiment [1] amounted to 46%. This compound had an IC50 in experiment [2] of 92 µM. For `O=C(O)CCCCCCCCCCCNC(=O)Cc1cn(CCOc2cccc3ccccc23)c2ccccc12`, in that order: 65% and 35 µM. `N#CCCOP(=O)(OCCCCCCCCCCCCNC(=O)Cc1cn(CCn2ccc3cc(Cl)ccc32)c2ccccc12)Oc1cccc(Cl)c1` (configuration not stated) gave an IC50 in experiment [2] of over 100 µM. In the case of `N#CCCOP(=O)(O)OCCCCCCCCCCCCNC(=O)Cc1cn(CCn2ccc3cc(Cl)ccc32)c2ccccc12`, the IC50 in experiment [2] was over 100 µM. As to `O=C(O)CCCCCCCCCCCNC(=O)Cc1cn(CCCn2cccc2)c2ccccc12`, the inhibition in experiment [1] worked out at 0%. In experiment [2], this compound had a half-inhibitory concentration (IC50) of over 100 µM. Compound `O=C(Cc1cn(CCn2ccc3cc(Cl)ccc32)c2ccccc12)NCCCCCCCCCCCCOP(=O)(O)Oc1cccc(Cl)c1` gave a concentration for half-maximal inhibition (IC50) in experiment [2] of 2.5 µM. This counts as single-digit micromolar.

Consider `Cc1c2n(c3ccccc13)CCCn1c-2c(CC(=O)NCCCCCCCCCCCC(=O)O)c2ccccc21`, for which, in experiment [1], the inhibition stood at 82%. Further, the midpoint of inhibition in experiment [2], the IC50, lay at 50 µM. `Cc1cn(CCCn2cc(CC(=O)NCCCCCCCCCCCCOP(=O)(OCCC#N)Oc3cccc(Cl)c3)c3ccccc32)c2ccccc12` (configuration not stated) had an IC50 in experiment [2] of over 100 µM. As for `O=C(O)CCCCCCCCCCCNC(=O)Cc1cn(CCOc2ccccc2)c2ccccc12`, the inhibition in experiment [1] is 0%. In experiment [2], `Cc1cn(CCCn2cc(CC(=O)NCCCCCCCCCCCCOP(=O)(O)Oc3cccc(Cl)c3)c3ccccc32)c2ccccc12` registered an IC50 of 3.4 µM. Same read-out and setting: the value for `O=C(O)CCCCCCCCCCCNC(=O)COc1c(-c2cc3ccccc3[nH]2)[nH]c2ccccc12` was over 100 µM; that for `O=C(Cc1cn(CCn2ccc3cc(Cl)ccc32)c2ccccc12)NCCCCCCCCCCCCOP(=O)(O)OC1CCCCC1` was 8.7 µM.

In general, inhibition refers to how much of the control response was suppressed. A word on the IC50: it is the concentration that gives 50% inhibition. Low readings indicate greater potency, high ones weaker potency.
